Experimental data reported in US20090069319A1, “IMIDAZOPYRIDINE ANALOGS AND THEIR USE AS AGONISTS OF THE WNT-BETA-CATENIN CELLULAR MESSAGING SYSTEM” (Wyeth, priority 2007, published 2009).

Assay: Functional Dkk1-LRP5-TCF-Luciferase Assay in U2OS Cells (table columns: A=MAX FOLD Induction/DMSO CONTROL; B=fold induction @ 2.0 uM; C=fold induction @ 20.0 uM)
Type: cell-based, Human
Conditions: Homo sapiens, U2OS; for fold induction at 2 µM: 2.0 uM compound; for fold induction at 20 µM: 20.0 uM compound
Outline: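 U2OS cells co-transfected with 16×TCF-TK-firefly luciferase, TK-Renilla control, Wnt3a and Dkk1, then frozen; thawed cells (~5,000/well, ~5% FBS, phenol red-free RPMI) incubated ~20 h at 37° C. with compound (0.25% DMSO). Firefly luminescence (Bright-Glo) normalized to DMSO mean as fold induction.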

Row | SMILES | fold induction at 2 µM | fold induction at 20 µM
1 | Cn1c(-c2nc3cc(-c4ccc5ccccc5c4)cnc3n2C2CCNCC2)cc2ccccc21 [2-(1-methyl-1H-indol-2-yl)-6-(2-naphthyl)-3-piperidin-4-yl-3H-imidazo[4,5-b]pyridine] | 1.05 | 
2 | CC(C)Cc1nc2cc(-c3ccc4ccccc4c3)cnc2n1C1CCNCC1 [2-isobutyl-6-(2-naphthyl)-3-piperidin-4-yl-3H-imidazo[4,5-b]pyridine] | 1.13 | 
3 | Clc1ccc(-c2nc3cc(-c4ccc5ccccc5c4)cnc3n2C2CCNCC2)c(Cl)c1 [2-(2,4-dichlorophenyl)-6-(2-naphthyl)-3-piperidin-4-yl-3H-imidazo[4,5-b]pyridine] | 1.04 | 
4 | c1ccc2cc(-c3ccnc4c3nc(-c3cc5ccccc5o3)n4C3CCNCC3)ccc2c1 [2-(1-benzofuran-2-yl)-7-(2-naphthyl)-3-piperidin-4-yl-3H-imidazo[4,5-b]pyridine] | 1.53 | 0.01
5 | COc1ccccc1-c1nc2c(-c3ccc4ccccc4c3)ccnc2n1C1CCNCC1 [2-(2-methoxyphenyl)-7-(2-naphthyl)-3-piperidin-4-yl-3H-imidazo[4,5-b]pyridine] | 1.99 | 
6 | CC(C)c1nc2cc(-c3ccc4ccccc4c3)cnc2n1C1CCNCC1 [2-isopropyl-6-(2-naphthyl)-3-piperidin-4-yl-3H-imidazo[4,5-b]pyridine] | 1.44 | 
7 | O=[N+]([O-])c1ccc(-c2nc3c(-c4ccc5ccccc5c4)ccnc3n2C2CCNCC2)s1 [7-(2-naphthyl)-2-(5-nitro-2-thienyl)-3-piperidin-4-yl-3H-imidazo[4,5-b]pyridine] | 1.83 | 0.01
8 | Fc1ccc(-c2nc3c(-c4ccc5ccccc5c4)ccnc3n2C2CCNCC2)c(C(F)(F)F)c1 [2-[4-fluoro-2-(trifluoromethyl)phenyl]-7-(2-naphthyl)-3-piperidin-4-yl-3H-imidazo[4,5-b]pyridine] | 1.11 | 
9 | Cc1nc2c(-c3ccc4ccccc4c3)ccnc2n1[C@H]1CCNC1 [2-methyl-7-(2-naphthyl)-3-[(3S)-pyrrolidin-3-yl]-3H-imidazo[4,5-b]pyridine] | 1.57 | 0.4
10 | FC(F)(F)c1ccc(C(F)(F)F)c(-c2nc3c(-c4ccc5ccccc5c4)ccnc3n2C2CCNCC2)c1 [2-[2,5-bis(trifluoromethyl)phenyl]-7-(2-naphthyl)-3-piperidin-4-yl-3H-imidazo[4,5-b]pyridine] | 1.45 | 
11 | CC(C)NC(=O)N1CCC(n2cnc3c(-c4ccc5ccccc5c4)ccnc32)CC1 [N-isopropyl-4-[7-(2-naphthyl)-3H-imidazo[4,5-b]pyridin-3-yl]piperidine-1-carboxamide] | 1.2 | 0.84
12 | c1ccc2cc(-c3cnc4c(c3)nc(-c3cc5ccccc5o3)n4C3CCNCC3)ccc2c1 [2-(1-benzofuran-2-yl)-6-(2-naphthyl)-3-piperidin-4-yl-3H-imidazo[4,5-b]pyridine] | 1 | 
13 | CC(=O)N1CCC(n2c(=O)n(C)c3c(-c4ccc5ccccc5c4)ccnc32)CC1 [3-(1-acetylpiperidin-4-yl)-1-methyl-7-(2-naphthyl)-1,3-dihydro-2H-imidazo[4,5-b]pyridin-2-one] | 1.09 | 0.51
14 | c1ccc2cc(-c3ccnc4c3nc(-c3cc5ccccc5s3)n4C3CCNCC3)ccc2c1 [2-(1-benzothien-2-yl)-7-(2-naphthyl)-3-piperidin-4-yl-3H-imidazo[4,5-b]pyridine] | 1.02 | 
15 | c1ccc2cc(-c3cnc4c(c3)nc(-c3ccc5occc5c3)n4C3CCNCC3)ccc2c1 [2-(1-benzofuran-5-yl)-6-(2-naphthyl)-3-piperidin-4-yl-3H-imidazo[4,5-b]pyridine] | 0.98 | 
16 | Cn1cccc1-c1nc2c(-c3ccc4ccccc4c3)ccnc2n1C1CCNCC1 [2-(1-methyl-1H-pyrrol-2-yl)-7-(2-naphthyl)-3-piperidin-4-yl-3H-imidazo[4,5-b]pyridine] | 1.52 | 0.01
17 | Brc1ccc(-c2nc3c(-c4ccc5ccccc5c4)ccnc3n2C2CCNCC2)cc1 [2-(4-bromophenyl)-7-(2-naphthyl)-3-piperidin-4-yl-3H-imidazo[4,5-b]pyridine] | 1.23 | 
18 | Clc1ccccc1-c1nc2c(-c3ccc4ccccc4c3)ccnc2n1C1CCNCC1 [2-(2-chlorophenyl)-7-(2-naphthyl)-3-piperidin-4-yl-3H-imidazo[4,5-b]pyridine] | 1.36 | 
19 | c1ccc2cc(-c3ccnc4c3nc(-c3ccsc3)n4C3CCNCC3)ccc2c1 [7-(2-naphthyl)-3-piperidin-4-yl-2-(3-thienyl)-3H-imidazo[4,5-b]pyridine] | 1.17 | 0.01
20 | Clc1ccc(-c2nc3c(-c4ccc5ccccc5c4)ccnc3n2C2CCNCC2)cc1 [2-(4-chlorophenyl)-7-(2-naphthyl)-3-piperidin-4-yl-3H-imidazo[4,5-b]pyridine] | 1.21 | 
21 | C=Cc1cccc(-c2nc3c(-c4ccc5ccccc5c4)ccnc3n2C2CCNCC2)c1 [7-(2-naphthyl)-3-piperidin-4-yl-2-(3-vinylphenyl)-3H-imidazo[4,5-b]pyridine] | 1.44 | 

Row | SMILES | fold induction at 2 µM | fold induction at 20 µM
22 | Oc1ccccc1-c1nc2c(-c3ccc4ccccc4c3)ccnc2n1C1CCNCC1 [2-[7-(2-naphthyl)-3-piperidin-4-yl-3H-imidazo[4,5-b]pyridin-2-yl]phenol] | 1.35 | 0.01
23 | c1ccc2cc(-c3cnc4c(c3)nc(C3CCCCC3)n4C3CCNCC3)ccc2c1 [2-cyclohexyl-6-(2-naphthyl)-3-piperidin-4-yl-3H-imidazo[4,5-b]pyridine] | 1.24 | 0.01
24 | CC(C)c1ccc(-c2nc3cc(-c4ccc5ccccc5c4)cnc3n2C2CCNCC2)cc1 [2-(4-isopropylphenyl)-6-(2-naphthyl)-3-piperidin-4-yl-3H-imidazo[4,5-b]pyridine] | 1.14 | 
25 | FC(F)(F)Oc1ccccc1-c1nc2c(-c3ccc4ccccc4c3)ccnc2n1C1CCNCC1 [7-(2-naphthyl)-3-piperidin-4-yl-2-[2-(trifluoromethoxy)phenyl]-3H-imidazo[4,5-b]pyridine] | 1.88 | 
26 | c1ccc2cc(-c3ccnc4c3ncn4C3CNC3)ccc2c1 [3-azetidin-3-yl-7-(2-naphthyl)-3H-imidazo[4,5-b]pyridine] | 1.49 | 1.25
27 | Clc1ccc(-c2nc3c(-c4ccc5ccccc5c4)ccnc3n2C2CCNCC2)c(Cl)c1 [2-(2,4-dichlorophenyl)-7-(2-naphthyl)-3-piperidin-4-yl-3H-imidazo[4,5-b]pyridine] | 1.1 | 
28 | c1ccc(-c2nc3c(-c4ccc5ccccc5c4)ccnc3n2C2CCNCC2)nc1 [7-(2-naphthyl)-3-piperidin-4-yl-2-pyridin-2-yl-3H-imidazo[4,5-b]pyridine] | 1.12 | 0.02
29 | CCCCc1nc2cc(-c3ccc4ccccc4c3)cnc2n1C1CCNCC1 [2-butyl-6-(2-naphthyl)-3-piperidin-4-yl-3H-imidazo[4,5-b]pyridine] | 1.21 | 
30 | CCc1nc2c(-c3ccc4ccccc4c3)ccnc2n1C1CCNCC1 [2-ethyl-7-(2-naphthyl)-3-piperidin-4-yl-3H-imidazo[4,5-b]pyridine] | 1.39 | 
31 | Brc1cccc(-c2nc3c(-c4ccc5ccccc5c4)ccnc3n2C2CCNCC2)c1 [2-(3-bromophenyl)-7-(2-naphthyl)-3-piperidin-4-yl-3H-imidazo[4,5-b]pyridine] | 1.52 | 
32 | c1ccc2cc(-c3cnc4c(c3)nc(-c3c[nH]c5ccccc35)n4C3CCNCC3)ccc2c1 [2-(1H-indol-3-yl)-6-(2-naphthyl)-3-piperidin-4-yl-3H-imidazo[4,5-b]pyridine] | 1.11 | 
33 | c1ccc2cc(-c3ccnc4c3nc(-c3ccc5occc5c3)n4C3CCNCC3)ccc2c1 [2-(1-benzofuran-5-yl)-7-(2-naphthyl)-3-piperidin-4-yl-3H-imidazo[4,5-b]pyridine] | 0.9 | 1.02
34 | Fc1cccc(-c2nc3c(-c4ccc5ccccc5c4)ccnc3n2C2CCNCC2)c1 [2-(3-fluorophenyl)-7-(2-naphthyl)-3-piperidin-4-yl-3H-imidazo[4,5-b]pyridine] | 1.55 | 
35 | c1ccc2cc(-c3cnc4c(c3)nc(-c3cc5ccccc5s3)n4C3CCNCC3)ccc2c1 [2-(1-benzothien-2-yl)-6-(2-naphthyl)-3-piperidin-4-yl-3H-imidazo[4,5-b]pyridine] | 0.92 | 
36 | Brc1ccccc1-c1nc2c(-c3ccc4ccccc4c3)ccnc2n1C1CCNCC1 [2-(2-bromophenyl)-7-(2-naphthyl)-3-piperidin-4-yl-3H-imidazo[4,5-b]pyridine] | 1.6 | 
37 | O=C(N1CCOCC1)N1CCC(n2cnc3c(-c4ccc5ccccc5c4)ccnc32)CC1 [3-[1-(morpholin-4-ylcarbonyl)piperidin-4-yl]-7-(2-naphthyl)-3H-imidazo[4,5-b]pyridine] | 1.08 | 1.25
38 | Clc1nc2ccccc2cc1-c1nc2c(-c3ccc4ccccc4c3)ccnc2n1C1CCNCC1 [2-chloro-3-[7-(2-naphthyl)-3-piperidin-4-yl-3H-imidazo[4,5-b]pyridin-2-yl]quinoline] | 1.6 | 
39 | c1ccc(CN2CCC(n3cnc4c(-c5ccc6ccccc6c5)ccnc43)CC2)cc1 [3-(1-benzylpiperidin-4-yl)-7-(2-naphthyl)-3H-imidazo[4,5-b]pyridine] | 0.84 | 0.08
40 | O=[N+]([O-])c1ccc(O)cc1-c1nc2c(-c3ccc4ccccc4c3)ccnc2n1C1CCNCC1 [3-[7-(2-naphthyl)-3-piperidin-4-yl-3H-imidazo[4,5-b]pyridin-2-yl]-4-nitrophenol] | 1.4 | 0.98
41 | c1ccc2cc(-c3ccnc4c3nc(-c3cccc5ncccc35)n4C3CCNCC3)ccc2c1 [5-[7-(2-naphthyl)-3-piperidin-4-yl-3H-imidazo[4,5-b]pyridin-2-yl]quinoline] | 1.33 | 
